Laboratory results: patent publication US11413278B2, “Compounds and methods for promoting stress resistance” (priority 2015, dated 2022)
Entries after “also recorded” stand apart in the source; their conditions may differ.

Key:
[1] = test system: FOXO3; test: FOXO3 siRNA knockdown: dependency for H2O2-resistance; format: cell-based, human; conditions: for FOXO3-dependency for H2O2-resistance, at 10 uM - with H2O2, 1st experiment: experiment 1 (1st); for FOXO3-dependency for H2O2-resistance (experiment 3): with & without H2O2, FOXO3 knockdown in WI-38 cells; for Assay 16: FOXO3-dependency for H2O2-resistance: YES/NO; for Requirement of FOXO3 to promote H2O2-resistance: FOXO3 siRNA, at least 2 of 3 independent experiments
Procedure: For qPCR analysis, WI-38 cells were treated with small molecules (at 10 μM) (biological quadruplicates) for 24 hrs and processed for RNA isolation and reverse transcription (RT) with the Cells-to-Ct Kit (Life Technologies), following manufacturer's instructions. RT products were diluted with H2O and used for qPCR analysis on an ABI 7300 system (Life Technologies) (technical triplicates). Relative expression levels of target genes were normalized to the genes B2M, PPIA and GAPDH. To knock down the expression of FOXO3 or NRF2, WI-38 cells were transfected, using the RNAiMAX reagents (Life Technologies), with siRNA oligos (at 10 nM final concentration, 10 ml culture medium) for FOXO3 (Life Technologies) or NRF2 (Integrated DNA Technologies) on 10-cm petri dishes for 36 hrs, and then detached and aliquoted onto 96-well (for qPCR analysis) or 384-well plates (for H2O2-stress treatment). ˜24 hrs later, small molecules were introduced and incubated with cells for 24 hrs. Cells were then either processed with the Cells-to-Ct Kit to prepare RT products for qPCR analysis or subjected to H2O2 (700 μM) for 3 hrs and assayed for viability. The knockdown efficiency of FOXO3 or NRF2 was checked at 36 hrs post-transfection and at the end as well. […]
Applicants used siRNA to knock down FOXO3 expression by ˜70% in an attempt to identify whether the activation of these genes depends on activity of FOXO3 and/or NRF2. […] We used siRNA to knock down FOXO3 expression by ˜60% to 70% (FIG. 3; see data in Table 6). […] (Given the caveat that FOXO3 was not fully knocked down, partial dependency was scored when the H2O2-resistance capacity was reduced by at least 25% but less than 50% upon siRNA knockdown). At least for Gr-7A and Gr-7C, which are structurally related, the observed FOXO3-dependency for H2O2-resistance is consistent with their strong effects to induce FOXO3 target genes (Tables 1a-1f, Table 6, & Table 15), including SOD2 and GADD45A.

[2] = test system: NRF2; test: in vitro; format: cell-based, human; conditions: for NRF2-dependency for H2O2-resistance, at 10 uM - with H2O2, 1st experiment: experiment 1 (1st); for NRF2-dependency for H2O2-resistance, at 10 uM - with H2O2, 2nd experiment: experiment 2 (2nd); for NRF2-dependency for H2O2-resistance, 1st experiment / NRF2-dependency for H2O2-resistance, 2nd experiment: with H2O2, NRF2 knockdown in WI-38 cells; for Assay 17: NRF2-dependency for H2O2-resistance: YES/NO; for NRF2-dependency of H2O2-resistance (NRF2 siRNA knockdown): at least 2 of 3 independent experiments; for viability of non-stressed cells, reduced by: human, 24 h
Procedure: For qPCR analysis, WI-38 cells were treated with small molecules (at 10 μM) (biological quadruplicates) for 24 hrs and processed for RNA isolation and reverse transcription (RT) with the Cells-to-Ct Kit (Life Technologies), following manufacturer's instructions. RT products were diluted with H2O and used for qPCR analysis on an ABI 7300 system (Life Technologies) (technical triplicates). Relative expression levels of target genes were normalized to the genes B2M, PPIA and GAPDH. To knock down the expression of FOXO3 or NRF2, WI-38 cells were transfected, using the RNAiMAX reagents (Life Technologies), with siRNA oligos (at 10 nM final concentration, 10 ml culture medium) for FOXO3 (Life Technologies) or NRF2 (Integrated DNA Technologies) on 10-cm petri dishes for 36 hrs, and then detached and aliquoted onto 96-well (for qPCR analysis) or 384-well plates (for H2O2-stress treatment). ˜24 hrs later, small molecules were introduced and incubated with cells for 24 hrs. Cells were then either processed with the Cells-to-Ct Kit to prepare RT products for qPCR analysis or subjected to H2O2 (700 μM) for 3 hrs and assayed for viability. The knockdown efficiency of FOXO3 or NRF2 was checked at 36 hrs post-transfection and at the end as well.
For qPCR analysis, WI-38 cells were treated with small molecules (at 10 μM) (biological quadruplicate) for 24 hrs and processed for RNA isolation and reverse transcription (RT) with the Cells-to-Ct Kit (Life Technologies), following manufacturer's instructions. RT products were diluted with H2O and used for qPCR analysis on a LightCycler 480 system (Roche) (technical triplicates). Relative expression levels of target genes were normalized to the genes B2M, PPIA and GAPDH. To knock down the expression of FOXO3 or NRF2, WI-38 cells were transfected with siRNA oligos (at 10 nM final concentration) for FOXO3 (Life Technologies) or NRF2 on 10-cm petri dish for 36 hrs, and then detached and aliquoted onto 96-well plates. ˜24 hrs later, small molecules were introduced and incubated with cells for 24 hrs. Cells were then processed with the Cells-to-Ct Kit to prepare RT products for qPCR analysis. The knockdown efficiency of FOXO3 or NRF2 was checked at 36 hrs post-transfection and at the end as well.
Of these, O15 and O20 consistently (in 3 of 3 experiments) required NRF2 to promote H2O2-resistance, and their resistance capacities were reduced by ˜90% on average upon NRF2 knockdown under conditions tested.

[3] = test system: mTOR; test: mTOR inhibition (RPS6 phosphorylation status), In-Cell Western; format: cell-based, human; conditions: for mTOR down-regulation by p-RPS6 assays: Assay 14(q), at 5 uM, 10 uM & 20 uM
Procedure: In-Cell Western assays were performed, following a standard immuno-staining protocol. Briefly, WI-38 cells were treated with small molecules for 24 hrs, and then processed and incubated with primary antibody cocktail (Cell Signaling, mouse anti-RPS, 1:25; rabbit-anti-pRPS6-(Ser-235/236), 1:100) overnight at 4° C. Next day, samples were processed and incubated with fluorophore-conjugated secondary antibodies (Cell Signaling, DyLight 680-goat anti-mouse, 1:500; DyLight 800-goat anti-rabbit, 1:1,000). Images were collected on an Odyssey Imager (LI-COR) and analyzed with the Image Studio Lite software (version 5.0.21).
Mammalian target of rapamycin (mTOR) is a crucial regulator of cell growth and metabolism and has been implicated in aging and many diseases, including cancer, diabetes and neurological diseases (Dazert and Hall, 2011; Zoncu et al., 2011). […] In addition, the anti-diabetes drug metformin (Kalender et al., 2010), as well as other AMPK activators such as 2-deoxy-D-glucose (Inoki et al., 2003) and AICAR (Shaw et al., 2004), could inhibit mTORC1. Applicants examined the effects of our molecules (at three doses, 5 μM, 10 μM and 20 μM) on the phosphorylation status of ribosomal protein S6 (RPS6), a readout of mTOR activity, to ask whether they could inhibit mTOR.
In-Cell Western assays were performed, following the same procedures to analyze DNA-damage markers. WI-38 cells were incubated with small molecules for 24 hrs, and then processed and incubated with primary antibody cocktail (mouse anti-RPS, 1:25; rabbit-anti-pRPS6, 1:100) overnight at 4° C. Next day, samples were processed and incubated with fluorophore-conjugated secondary antibodies (goat anti-mouse, 1:500; goat anti-rabbit, 1:1,000) in antibody dilution buffer. Images were collected on an Odyssey Imager (LI-COR) and analyzed with the Image Studio Lite software.

[4] = test system: WI-38 cells; conditions: no H2O2 stress, 10 uM; negative control 0.41% ± 0.23%
Procedure: WI-38 cells were seeded on 384-well plates for 24 hrs and then incubated with small molecules for 24 hrs. […] Images were collected on an INCell Analyzer 2000 (GE) and analyzed with the Developer software.

[5] = 10 uM, YES = resistance reduced by at least 50%, partial = 25% to 50%
[6] = 10 uM, with H2O2, FOXO3 knockdown in WI-38 cells, YES = resistance reduced by at least 50%, partial = 25% to 50%
[7] = Exp. 3, at 5 μM, In-Cell Western, n=4

Row | SMILES | FOXO3-dependency for H2O2-resistance, at 10 uM - with H2O2, 1st experiment ([1]; 10 uM, with H2O2) | FOXO3-dependency for H2O2-resistance, at 10 uM (experiment 3) - with & without H2O2 ([1]; 10 uM) | FOXO3-dependency for H2O2-resistance (experiment 3) [1, 5] | FOXO3-dependency for H2O2-resistance, 1st experiment [1, 6] | Assay 16: FOXO3-dependency for H2O2-resistance ([1]; 10 uM) | Requirement of FOXO3 to promote H2O2-resistance [1] | I = FOXO3-dependency for H2O2-resistance ([1]; score) | I = FOXO3-dependency for H2O2-resistance ([1]; summary score) | Survival of NRF2 siRNA-transfected cells in the absence of H2O2 [2] | NRF2-dependency for H2O2-resistance, at 10 uM - with H2O2, 1st experiment ([2]; 10 uM) | NRF2-dependency for H2O2-resistance, at 10 uM - with H2O2, 2nd experiment ([2]; 10 uM) | NRF2-dependency for H2O2-resistance, 1st experiment [2, 5] | NRF2-dependency for H2O2-resistance, 2nd experiment [2, 5] | Assay 17: NRF2-dependency for H2O2-resistance ([2]; 10 uM) | NRF2-dependency of H2O2-resistance (NRF2 siRNA knockdown) [2] | J = NRF2-dependency for H2O2-resistance ([2]; score) | J = NRF2-dependency for H2O2-resistance ([2]; summary score) | G = mTOR down-regulation ([3]; 2-point score) | G = mTOR down-regulation ([3]; summary score) | Percentage of propidium iodide-positive dead cells (no H2O2 stress treatment), at 10 uM [4] | also measured
1 | O=C(NCc1cccnc1)/C(=C\c1cccc(Oc2ccccc2)c1)S(=O)(=O)c1ccccc1 [Gr-7A] | 1st, partial; | YES | YES | partial; | YES | required FOXO3 | 1 | 1 | could reduce the survival | 1st, YES; | 2nd, YES. | YES; | YES. | YES | significantly attenuate | 1 | 1 | 2 | 2 | – | FOXO3-dependency for H2O2-resistance, at 10 uM - with H2O2, 2nd experiment ([1]; 10 uM, experiment 2 (2nd), with H2O2): 2nd, YES.; FOXO3-dependency for H2O2-resistance, 2nd experiment [1, 6]: YES.; viability of non-stressed cells, reduced by ([2]; 10 uM): by 84%); mTOR down-regulation by p-RPS6 assays [3]: YES; Exp. 1, normalized reduction in p-RPS6/RPS6 ratio ([3]; Exp. 1, In-Cell Western, n=4): ~61% (−), at 20 μM; Exp. 1, normalized reduction in p-RPS6/RPS6 ratio ([3]; Exp. 1, at 10 μM, In-Cell Western, n=4): ~60% (−), at 10 μM;; Exp. 2, normalized reduction in p-RPS6/RPS6 ratio ([3]; Exp. 2, at 10 μM, In-Cell Western, n=4): ~75% (−), at 10 μM; Exp. 3, normalized reduction in p-RPS6/RPS6 ratio ([3]; Exp. 3, In-Cell Western, n=4): ~92% (−), at 20 μM; Exp. 3, normalized reduction in p-RPS6/RPS6 ratio [3, 7]: ~50% (−), at 5 μM;; Exp. 3, normalized reduction in p-RPS6/RPS6 ratio ([3]; Exp. 3, at 10 μM, In-Cell Western, n=4): ~89% (−), at 10 μM;; mTOR inhibition (p-RPS6/RPS6), qualitative ([3]; In-Cell Western): mTOR-inhibiting activities; also recorded: consistently reduced the ratios
2 | Cc1cc(C)c(C(=O)/C=C/c2ccccc2F)c(O)n1 [O18] | – | YES | YES | – | – | – | 0 | 0 | – | – | 2nd, partial. | – | partial. | YES | significantly attenuate | 1 | 1 | 0 | 0 | 0.36% ± 0.16%, | NRF2-dependency for H2O2-resistance, at 10 uM (experiment 3) - with & without H2O2 ([2]; 10 uM, experiment 3, with & without H2O2): YES; NRF2-dependency for H2O2-resistance (experiment 3) ([2]; 10 uM, with & without H2O2, NRF2 knockdown in WI-38 cells, YES = resistance reduced by at least 50%, partial = 25% to 50%): YES
3 | [O-][n+]1onc2c3nsnc3c(Br)cc21 [O17] | – | – | – | – | – | – | 0 | 0 | – | – | – | – | – | – | – | 0 | 0 | 0 | 0 | 0.56% ± 0.25%, | –
4 | COc1ccc(C(=O)/C=C/c2ccccc2Br)c(OC)c1 [Gr-4B] | – | – | – | – | – | – | 0 | 0 | – | – | – | – | – | – | – | 0 | 0 | 0 | 0 | 0.36% ± 0.13%, | –
5 | O=C(NCc1cccnc1)/C(=C/c1ccc(-c2ccc(Cl)cc2)o1)S(=O)(=O)c1ccccc1 [Gr-7C] | 1st, YES; | Partial | Partial | YES; | YES | required FOXO3 | 1 | 1 | could reduce the survival | 1st, YES; | – | YES; | – | YES | significantly attenuate | 1 | 1 | 2 | 2 | – | viability of non-stressed cells, reduced by ([2]; 10 uM): by 60%); mTOR down-regulation by p-RPS6 assays [3]: YES; Exp. 1, normalized reduction in p-RPS6/RPS6 ratio ([3]; Exp. 1, In-Cell Western, n=4): ~80% (−), at 20 μM; Exp. 3, normalized reduction in p-RPS6/RPS6 ratio ([3]; Exp. 3, In-Cell Western, n=4): ~40% (−), at 20 μM; Exp. 3, normalized reduction in p-RPS6/RPS6 ratio [3, 7]: ~38% (−), at 5 μM;; mTOR inhibition (p-RPS6/RPS6), qualitative ([3]; In-Cell Western): consistently reduced the ratios
